Laboratory results as given in patent US20120190707A1, “SELECTIVE INHIBITORS OF AKT AND METHODS OF USING SAME” (priority 2008, published 2012).
Like-named read-outs stand apart in the source and are kept apart here.

Columns and labels:
[1] = tested on: PRAS40; assay: PRAS40 phosphorylation by western analysis in UACC903 cells; type: cell-based, human; details: UACC903, 10.micro.M
Experimental: FIG. 6 describes the effect of BI-69A11 on phosphorylation and total levels of AKT in UACC 903 (PTEN−) cells. (A) UACC903 and the modified clone 29-1 (PTEN+) cells were exposed to 10 micro.M BI-69A11 and 50 micro.M LY294002 (a PI3K inhibitor) and the levels of pAKT473 and total AKT determined by western analysis. […] (SF=Serum Free). (B) BI-69A11 inhibits PRAS40 phosphorylation. UACC903 melanoma cells or 29-1 cells (PTEN+) were subjected to treatment with IGF-1 (20 ng/mL) and the level of PRAS40 phosphorylation was assessed. […] The cells were collected, lysed and levels of pPRAS40 and total PRAS40 determined by western analysis. (C) AKT association with HSP90 is inhibited by BI-69A11. Human melanoma cells were treated with BI-69A11 (10.micro.M) or DMSO control for 4 h, followed by protein preparation and immunoprecipitation using antibodies to pan-AKT. MG132 treatment, when used, initiated 1 h prior to treatment and lasted up to the preparation of proteins (total of 5 h). The right panel depicts analysis of total lysates.
Thus, we set to test the possibility that BI-69A11's ability to inhibit AKT activity may stem from inhibition of AKT protein expression (see data below). We thus assessed whether inhibition of AKT Ser473 phosphorylation coincides with its activity, namely the phosphorylation of known AKT substrates. […]

[2] = mouse, in vivo
[3] = target: Akt1 (Homo sapiens, UniProt P31749); assay: Akt1 inhibition, Z'-LYTE kit fluorescent-enzymatic assay; type: biochemical
Sequence of Akt1 (P31749 whole entry): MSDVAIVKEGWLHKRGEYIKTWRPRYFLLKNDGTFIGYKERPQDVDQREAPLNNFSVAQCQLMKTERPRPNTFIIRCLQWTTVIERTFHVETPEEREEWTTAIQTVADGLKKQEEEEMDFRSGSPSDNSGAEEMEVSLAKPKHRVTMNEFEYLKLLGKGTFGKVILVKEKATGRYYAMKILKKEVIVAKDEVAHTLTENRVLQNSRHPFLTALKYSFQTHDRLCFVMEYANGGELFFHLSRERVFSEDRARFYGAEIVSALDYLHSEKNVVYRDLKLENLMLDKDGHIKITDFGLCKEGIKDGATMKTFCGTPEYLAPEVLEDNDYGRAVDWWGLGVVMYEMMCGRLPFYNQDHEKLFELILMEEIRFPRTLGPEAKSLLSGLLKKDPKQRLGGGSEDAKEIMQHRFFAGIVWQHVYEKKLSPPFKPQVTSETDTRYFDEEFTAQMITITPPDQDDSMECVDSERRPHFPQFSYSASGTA
Experimental: Here the top 4000 compounds out of 50000 docked compounds were selected using FlexX and Drugscore (BioSolvIT). The top 4000 docked structures were further evaluated and ranked according to Goldscore and Chemscore functions (CSCORE). A list of common 200 compounds was then selected among ranked top 700 compounds according to both scoring functions (FIG. 1B). […] The remaining 100 compounds were experimentally tested up to 30 μM against Akt1. The inhibitory activity was evaluated for the selected compounds by using Z'-LYTE™ kit assay provided by Invitrogen Corporation (19). […] Corning® 384-well low volume plates (20 μl) were used. The fluorescent-enzymatic assay has been performed following the protocol provided by Invitrogen Corporation, using a fluorescent plate reader (Victor2, Perkin-Elmer). […] C) Lineweaver-Burk Km and Km(app) evaluation for Akt1. Each measurement was performed in triplicate. […] The Ki and the Km(app) were calculated at fixed inhibitor concentrations, as reported in the text. All constant values were definitely evaluated by fitting the data to the Lineweaver-Burk plot; D) Akt1 inhibition assay using GSK-3 as a substrate. Comparison of compounds 1 and 2 (Table 1) with H89 at 10 μM. E) Dose response for compound 1. Akt (10 ng of recombinant enzyme) in 25 μl 1× kinase buffer (25 mM Tris, pH 7.5; 5 mM n-glycerol phosphate; 2 mM dithiothreitol; 0.1 mM Na3VO4; and 10 mM MgCl2), was mixed with 2.5 μl DMSO (1% stock) or MPA-D (100 μM in 1% DMSO). Samples were incubated on ice for 1.5 hours at which time 1 μg of GSK-3 fusion protein (Cell Signaling), which served as the substrate, was added followed by ATP (200 μM) to each reaction mixture. After the suspensions were incubated at 30° C. for 20 min, the reaction was terminated by the addition of 3×SDS sample buffer (187.5 mM Tris-HCl, pH 6.8; 6% SDS; 30% glycerol; 150 mM dithiothreitol; and 0.03% bromophenol blue). The samples were boiled for 5 min, and the proteins were separated on a 12% SDS polyacrylamide gel and subsequently transferred to a nitrocellulose membrane. Membranes were incubated with rabbit polyclonal anti-phospho-GSK-3α/β (Ser21/9) (Cell Signaling).
For these purposes, we initially determined the Km and the Vmax of the enzymatic reaction involving the peptide provided by the Z'-LYTE™ kit assay and Akt1 by varying the concentration of ATP. The above parameters appeared to be 7.9 μM and 0.0205 μmol min^−1 mg^−1, respectively. […] Because all our inhibitors affected the Km rather than the Vmax of the reaction (FIG. 2C), they can be truly considered ATP-competitive inhibitors of Akt1.

**Q.** With `O=C(/C=C/c1nc2ccccc2[nH]1)c1c(O)nc2ccc(Cl)cc2c1-c1ccccc1` [Compound 2, (E)-3-(3-(1H-benzo[d]imidazol-2-yl)acryloyl)-6-chloro-4-phenylquinolin-2(1H)-one] as the compound, how does the “phosphorylation of PRAS40” value [1] read?
**A.** The value was “markedly inhibited”.

**Q.** And the “cytokines in the blood, treated vs. control” value [2]?
**A.** Its value is “induction of TNFalpha”.

**Q.** What about the “toxicity by blood work” value [2] of the same compound?
**A.** Its value is “lack of toxicity”.

**Q.** And the “IC50 values (in words)” value [3]?
**A.** The value was “low-micromolar range”.

**Q.** What about the Ki ([3]; 10 μM compound 1, 20 μM compound 2, 50 μM compound 3, increasing ATP, Lineweaver-Burk) of the same compound?
**A.** The Ki was 3.9 µM.

**Q.** What about the IC50 ([3]; AKT1, Example 2 (Forino et al., 2005), read-out: IC50 values) of the same compound?
**A.** Its IC50 is 2.3 µM.

**Q.** And the IC50 ([3]; FIG. 2 legend, read-out: IC50 value)?
**A.** The IC50 was 4.5 µM.

**Q.** What about the “type of inhibition of Akt1” value ([3]; affected Km rather than Vmax) of the same compound?
**A.** The value was “ATP competitive inhibition”.
